# Values quoted from earlier work in US20250339398A1, “TREATMENT OF SLEEP DISTRUBANCES IN AUTISM SPECTRUM DISORDER PATIENTS” (Vanda Pharmaceuticals Inc., priority 2021, published 2025).
# How the values were obtained:
# MT2 receptor = target: T1, MT2 receptor (Homo sapiens, UniProt P49286); details: MT2 receptor versus MT1 receptor
# T1 sequence (P49286 1-362): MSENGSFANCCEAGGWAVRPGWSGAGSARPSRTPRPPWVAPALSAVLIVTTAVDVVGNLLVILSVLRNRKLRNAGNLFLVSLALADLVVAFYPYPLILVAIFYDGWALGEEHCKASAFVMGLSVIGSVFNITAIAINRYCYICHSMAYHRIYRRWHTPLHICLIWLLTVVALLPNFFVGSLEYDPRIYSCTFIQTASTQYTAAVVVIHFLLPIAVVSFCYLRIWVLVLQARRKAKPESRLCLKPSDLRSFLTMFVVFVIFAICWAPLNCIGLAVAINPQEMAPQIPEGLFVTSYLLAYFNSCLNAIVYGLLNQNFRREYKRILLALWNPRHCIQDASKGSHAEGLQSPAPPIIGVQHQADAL
# [1] = previous clinical studies in healthy volunteers, primary insomnia, Non-24, pediatric SMS
smiles,measurement,setting,value
"CCC(=O)NC[C@@H]1C[C@H]1c1cccc2c1CCO2 [Tasimelteon, tasimelteon]",affinity for the MT2 receptor relative to the MT1 receptor,MT2 receptor,greater affinity for the MT2 receptor than the MT1 receptor
same,linearity of pharmacokinetics,doses ranging from 3 mg to 300 mg,linear
same,absolute bioavailability,in vivo,38%
same,safety and tolerability,[1],safe and well-tolerated
